Measurements as given in patent publication US20130225623A1, “Methods of Treating Psychiatric or Neurological Disorders with MGLUR Antagonists” (MOUNT SINAI SCHOOL OF MEDICINE, priority 2010, published 2013).
Several values for one entry are separate records, joined by “and”; a condition that tells them apart may be missing. Equal entries are not always repeated.

Columns and labels:
Format in all cases: cell-based, mouse
[1] = system: field EPSPs in hippocampal slices (area CA1); group I mGluRs; test: DHPG-induced long-term depression (mGluR-LTD), hippocampal slice electrophysiology; details: for depression in synaptic transmission (field EPSP slope): at 30 min of application; for effect of mGluR blockade on DHPG-induced LTD: Cyfip1 heterozygotes, slices incubated with antagonist and DHPG (MPEP 10 μM; LY367385 100 μM)
Method: (§1) Hippocampal slices (350 μm) were prepared from 4-6 week old heterozygous mice and their wild-type littermate controls. Slices were perfused with Ringer's solution containing (in mM): NaCl, 125.0; KCl, 2.5; MgSO4, 1.3; NaH2PO4, 1.0; NaHCO3, 26.2; CaCl2, 2.5; glucose, 11.0. The Ringer's solution was bubbled with 95% O2/5% CO2, at 32° C., during extracellular recordings (electrode solution: 3 M NaCl). Slices were maintained for 1 hr prior to establishment of a baseline of field excitatory postsynaptic potentials (fEPSPs) recorded from stratum radiatum in area CA1, evoked by stimulation of the Schaffer collateral-commissural afferents (100 μs pulses every 30 s) with bipolar tungsten electrodes placed into area CA3 (Bozdagi et al., 2000). Test stimulus intensity was adjusted to obtain fEPSPs with amplitudes that were one-half of the maximal response. The EPSP initial slope (mV/ms) was determined from the average waveform of four consecutive responses. Cycloheximide (60 μM, Sigma), dihydroxyphenylglycine (DHPG, 50 μM, Sigma), 2-methyl-6-phenylethynyl-pyridine (MPEP, 10 μM, Tocris), LY367385 (100 μM, Tocris), or rapamycin (20 nM, Enzo Life Sciences) were bath-applied for various durations as described in the Examples, below.
(§2) All experiments were performed in the presence of 100 μM 2-amino-5-phosphopentanoic acid (AP5). Paired-pulse responses were measured with interstimulus interval (ISI) of 50 ms, and are expressed as the ratio of the average responses to the second stimulation pulse (FP2) to the first stimulation pulse (FP1). LTP was induced by either a high-frequency stimulus (four trains of 100 Hz, 1 s stimulation separated by 5 min), a threshold levels of theta-burst stimulation (TBS) (5 bursts of four pulses at 100 Hz separated by 200 ms, (Lauterborn et al., 2007), or a single 100 Hz stimulation. To induce an mGluR-dependent LTD, Schaffer collaterals were stimulated by a paired-pulse low-frequency-stimulation (PP-LFS, 1 Hz for 20 min; 50 ms interstimulus interval (Huber et al., […]). DHPG-induced LTD was also used as described in the Examples, below
The mammalian target of rapamycin (mTOR) is an important regulator of translation in long-lasting forms of synaptic plasticity and it has been shown that DHPG-induced mGluR-LTD in hippocampal area CA1 is dependent on mTOR (see Richter and Klann, 2009). To determine whether mTOR is required for mGluR-LTD in Cyfip1 heterozygous mice, hippocampal slices were treated with DHPG in the presence of the mTOR inhibitor rapamycin.
Because mGluR5 activation is essential for mGluR-LTD induction, the effect of mGluR5 blockade on DHPG-induced LTD was examined. […] The effect of mGluR1 blockade on DHPG-induced LTD was also examined. […] The slices were next treated with both mGluR1 (LY367385) and mGluR5 (MPEP) antagonists.

[2] = system: field EPSPs in hippocampal slices (area CA1); test: Protein synthesis-dependent LTP induced by high frequency stimulation (HFS), hippocampal slice electrophysiology
[3] = system: field EPSPs at Schaffer collateral-CA1 synapses in acute hippocampal slices; test: Paired-pulse low frequency stimulation (PP-LFS)-induced mGluR-LTD, hippocampal slice electrophysiology; details: for effect on PP-LFS-induced LTD: cycloheximide 60 μM; for field EPSP slope: in the presence of cycloheximide (60 μM), at 60 min after PP-LFS
Method: as §1, §2
To examine the role of CYFIP1 in mGluR-LTD, field EPSPs were recorded at Schaffer collateral-CA1 synapses in acute hippocampal slices prepared from wild-type and Cyfip1 heterozygous mice.
One of the most striking abnormalities in experimental synaptic plasticity observed in the absence of FMRP is that mGluR-LTD is independent of protein synthesis in these animals. As the Cyfip1 heterozygotes have enhanced LTD, similar to what is observed in the absence of FMRP, mGluR-LTD in the presence of the protein synthesis inhibitor cycloheximide was examined.

For `NC(C(=O)O)c1cc(O)cc(O)c1` (racemic) [DHPG, (RS)-3,5-dihydroxyphenylglycine], which “depression in synaptic transmission (field EPSP slope)” value ([1]; Cyfip1 heterozygous mice, DHPG 50 μM) is on record?
Its value is 70.5±6 % of baseline.

What about the “depression in synaptic transmission (field EPSP slope)” value ([1]; wild-type mice, DHPG 50 μM) of the same compound?
The value was 81.2±3 % of baseline.

Which “effect of mGluR blockade on DHPG-induced LTD” value [1] does the source give for `Cc1cc(C(=O)O)ccc1[C@H](N)C(=O)O` [LY367385] here?
The value was “did not cause any change”.

Which “effect of mGluR blockade on DHPG-induced LTD” value [1] does the source give for `Cc1cccc(C#Cc2ccccc2)n1` [MPEP, 2-methyl-6-(phenylethynyl)-pyridine] here?
The value was “did not cause any change”.

How did the “effect on DHPG-induced LTD” value ([1]; wild-type mice, 60 μM cycloheximide, DHPG 50 μM) turn out when `C[C@@H]1C[C@@H]([C@H](O)CC2CC(=O)NC(=O)C2)C(=O)[C@@H](C)C1` [cycloheximide] was run?
Its value is “reduced LTD”.

What about the “field EPSP slope” value [2] of the same compound?
The value was 99±8 % of baseline and 100.8±8.2 % of baseline.

And the “inhibition of protein synthesis-dependent LTP, comparison between genotypes” value ([2]; wild-type vs Cyfip1 heterozygous mice, cycloheximide 60 μM, rapamycin 20 nM)?
The value was “did not differ between genotypes”.

And the “effect on PP-LFS-induced LTD” value ([3]; Cyfip1 heterozygous animals)?
Its value is “not affected”.

And the “field EPSP slope” value ([3]; Cyfip1 heterozygous slices)?
The value was 68.49±8.9 % of baseline.

What about the “effect on PP-LFS-induced LTD” value ([3]; wild-type littermate controls) of the same compound?
The value was “inhibited LTD”.

What about the “field EPSP slope” value ([3]; wild-type slices) of the same compound?
The value was 98.05±2.5 % of baseline.
